{"source": "patent US6861561B2", "about": "“Substituted aromatic policyclic tertiary-heteroalkylamines useful for inhibiting cholesteryl ester transfer protein activity” (G. D. Searle & Co., priority 1999, dated 2005)", "target": "T1, Human recombinant CETP (Homo sapiens, UniProt P11597)", "T1 construct": "made in house; host or cells: CHO cells (serum-free conditioned medium)", "T1 sequence (P11597 18-493)": "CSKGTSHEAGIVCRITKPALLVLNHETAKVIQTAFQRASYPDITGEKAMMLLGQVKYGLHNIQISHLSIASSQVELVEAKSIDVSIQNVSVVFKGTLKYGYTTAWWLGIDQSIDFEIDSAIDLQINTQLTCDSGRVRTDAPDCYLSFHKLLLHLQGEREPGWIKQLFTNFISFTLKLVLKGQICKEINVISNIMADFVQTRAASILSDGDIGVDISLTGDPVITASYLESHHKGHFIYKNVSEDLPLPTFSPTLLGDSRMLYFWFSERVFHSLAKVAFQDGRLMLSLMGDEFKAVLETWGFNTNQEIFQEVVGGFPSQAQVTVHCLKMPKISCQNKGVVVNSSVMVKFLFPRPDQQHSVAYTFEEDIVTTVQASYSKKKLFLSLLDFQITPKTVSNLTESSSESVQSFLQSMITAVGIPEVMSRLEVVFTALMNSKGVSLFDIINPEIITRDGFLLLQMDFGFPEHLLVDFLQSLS", "assay": "Assay of CETP Inhibition Using Purified Components (Reconstituted Buffer Assay)", "assay_type": "biochemical", "details": "transfer of [3H]CE from HDL to LDL; 2 hours at 37° C.", "protocol": "Assay of CETP Inhibition Using Purified Components (Reconstituted Buffer Assay)\nThe ability of compounds to inhibit CETP activity was assessed using an in vitro assay that measured the rate of transfer of radiolabeled cholesteryl ester ([^3H]CE) from HDL donor particles to LDL acceptor particles. Details of the assay are provided by Glenn, K. C. et al. (Glenn and Melton, “Quantification of Cholesteryl Ester Transfer Protein (CETP): A) CETP Activity and B) Immunochemical Assay of CETP Protein,” Meth. Enzymol., 263, 339-351 (1996)). Human recombinant CETP can be obtained from the serum-free conditioned medium of CHO cells transfected with a cDNA for CETP and purified as described by Wang, S. et al. (J. Biol. Chem. 267, 17487-17490 (1992)). To measure CETP activity, [^3H]CE-labeled-HDL, LDL, CETP and assay buffer (50 mM tris(hydroxymethyl)aminomethane, pH 7.4; 150 mM sodium chloride; 2 mM ethylenediamine-tetraacetic acid (EDTA); 1% bovine serum albumin) were incubated in a final volume of 200 μL, for 2 hours at 37° C. in 96 well plates. Inhibitors were included in the assay by diluting from a 10 mM DMSO stock solution into 16% (v/v) aqueous DMSO so that the final concentration of inhibitor was 800 μM. The inhibitors were then diluted 1:1 with CETP in assay buffer, and then 25 μL of that solution was mixed with 175 μL of lipoprotein pool for assay. Following incubation, LDL was differentially precipitated by the addition of 50 μL of 1% (w/v) dextran sulfate/0.5 M magnesium chloride, mixed by vortex, and incubated at room temperature for 10 minutes. A potion of the solution (200 μL) was transferred to a filter plate (Millipore). After filtration, the radioactivity present in the precipitated LDL was measured by liquid scintillation counting. […] The rate of [^3H]CE transfer using this assay was linear with respect to time and CETP concentration, up to 25-30% of [^3H]CE transferred.\nThis value was defined as the IC50."}
{"smiles": "OCC(c1ccc(C(F)(F)F)cc1)N(Cc1cccc(OC(F)(F)F)c1)c1cccc(Oc2ccccc2)c1", "note": "(stereo not shown) [1B, 2-[(3-phenoxy)phenyl[[(3-trifluoromethoxy)phenyl]methyl]amino]-2-[(4-trifluoromethyl)phenyl]ethanol]", "values": [{"measurement": "IC50", "result": 6, "unit": "µM"}]}
{"smiles": "OC(CN(Cc1cccc(OC(F)(F)F)c1)c1cccc(Oc2ccccc2)c1)c1ccc(C(F)(F)F)cc1", "note": "(stereo not shown) [EX-1A, 2-[(3-phenoxy)phenyl[[(3-trifluoromethoxy)phenyl]methyl]amino]-1-[(4-trifluoromethyl)phenyl]ethanol]", "values": [{"measurement": "IC50", "result": 18, "unit": "µM"}]}
{"smiles": "CCCC(O)CN(Cc1cccc(OC(F)(F)F)c1)c1cccc(Oc2ccccc2)c1", "note": "(stereo not shown) [Example 2]", "values": [{"measurement": "IC50", "result": 3.6, "unit": "µM"}]}
{"smiles": "OC(CN(Cc1cccc(OC(F)(F)F)c1)c1cccc(Oc2ccccc2)c1)c1ccccc1", "note": "(stereo not shown) [Example 3]", "values": [{"measurement": "IC50", "result": 44, "unit": "µM"}]}
{"smiles": "C=CC(O)CN(Cc1cccc(OC(F)(F)F)c1)c1cccc(Oc2ccccc2)c1", "note": "(stereo not shown) [Example 4]", "values": [{"measurement": "IC50", "result": "> 50", "unit": "µM"}]}
{"smiles": "OC(Cc1ccccc1)CN(Cc1cccc(OC(F)(F)F)c1)c1cccc(Oc2ccccc2)c1", "note": "(stereo not shown) [Example 5]", "values": [{"measurement": "IC50", "result": "> 50", "unit": "µM"}]}
{"smiles": "OC(COc1ccc(Cl)cc1)CN(Cc1cccc(OC(F)(F)F)c1)c1cccc(Oc2ccccc2)c1", "note": "(stereo not shown) [Example 6]", "values": [{"measurement": "IC50", "result": "> 100", "unit": "µM"}]}
{"smiles": "OC(COCc1ccco1)CN(Cc1cccc(OC(F)(F)F)c1)c1cccc(Oc2ccccc2)c1", "note": "(stereo not shown) [Example 7]", "values": [{"measurement": "IC50", "result": "> 100", "unit": "µM"}]}
{"smiles": "OCC(c1cccc(C(F)(F)F)c1)N(Cc1cccc(OC(F)(F)F)c1)c1cccc(Oc2ccccc2)c1", "note": "(stereo not shown) [Example 8]", "values": [{"measurement": "IC50", "result": 7, "unit": "µM"}]}
{"smiles": "COC(=O)C(C)(O)CN(Cc1cccc(OC(F)(F)F)c1)c1cccc(Oc2ccccc2)c1", "note": "(stereo not shown) [Example 9]", "values": [{"measurement": "IC50", "result": 24, "unit": "µM"}]}
{"smiles": "OC(CN(Cc1cccc(OC(F)(F)C(F)F)c1)c1cccc(Oc2ccccc2)c1)c1ccccc1", "note": "(stereo not shown) [Example 10]", "values": [{"measurement": "IC50", "result": 57, "unit": "µM"}]}
{"smiles": "OC1CCCCC1N(Cc1cccc(OC(F)(F)F)c1)c1cccc(Oc2ccccc2)c1", "note": "(stereo not shown) [Example 26]", "values": [{"measurement": "IC50", "result": 15, "unit": "µM"}]}
{"smiles": "FC(F)(F)Oc1cccc(CN(CCc2ccc(C(F)(F)F)cc2)c2cccc(Oc3ccccc3)c2)c1", "note": "[Example 27, N-[(3-phenoxy)phenyl]-N-[[(3-trifluoromethoxy)phenyl]methyl]-2-[(4-trifluoromethyl)phenyl]ethanamine]", "values": [{"measurement": "IC50", "result": "> 100", "unit": "µM"}]}
{"smiles": "FC(CN(Cc1cccc(OC(F)(F)F)c1)c1cccc(Oc2ccccc2)c1)c1ccc(C(F)(F)F)cc1", "note": "(stereo not shown) [Example 28, N-[(3-phenoxy)phenyl]-N-[[(3-trifluoromethoxy)phenyl]methyl]-2-[(4-trifluoromethyl)phenyl]-2-fluoro-ethanamine]", "values": [{"measurement": "IC50", "result": "> 100", "unit": "µM"}]}
{"smiles": "CCCC(O)CN(Cc1cccc(OC(F)(F)F)c1)Cc1cccc(OC(F)(F)F)c1", "note": "(stereo not shown) [compound 11]", "values": [{"measurement": "IC50", "result": 30, "unit": "µM"}]}
{"smiles": "OC(Cc1ccccc1)CN(Cc1cccc(OC(F)(F)F)c1)Cc1cccc(OC(F)(F)F)c1", "note": "(stereo not shown) [compound 12]", "values": [{"measurement": "IC50", "result": 14, "unit": "µM"}]}
{"smiles": "COCC(O)CN(Cc1cccc(OC(F)(F)F)c1)Cc1cccc(OC(F)(F)F)c1", "note": "(stereo not shown) [compound 13]", "values": [{"measurement": "IC50", "result": 80, "unit": "µM"}]}
{"smiles": "CC(O)CN(Cc1cccc(OC(F)(F)F)c1)Cc1cccc(OC(F)(F)F)c1", "note": "(stereo not shown) [compound 14]", "values": [{"measurement": "IC50", "result": 90, "unit": "µM"}]}
{"smiles": "CCOC(=O)C(O)CN(Cc1cccc(OC(F)(F)F)c1)Cc1cccc(OC(F)(F)F)c1", "note": "(stereo not shown) [compound 15]", "values": [{"measurement": "IC50", "result": "> 100", "unit": "µM"}]}
{"smiles": "OCC(O)CN(Cc1cccc(OC(F)(F)F)c1)Cc1cccc(OC(F)(F)F)c1", "note": "(stereo not shown) [compound 16]", "values": [{"measurement": "IC50", "result": "> 100", "unit": "µM"}]}
{"smiles": "OC(COc1ccccc1)CN(Cc1cccc(OC(F)(F)F)c1)Cc1cccc(OC(F)(F)F)c1", "note": "(stereo not shown) [compound 17]", "values": [{"measurement": "IC50", "result": "> 100", "unit": "µM"}]}
{"smiles": "OC(COc1ccc(Cl)cc1)CN(Cc1cccc(OC(F)(F)F)c1)Cc1cccc(OC(F)(F)F)c1", "note": "(stereo not shown) [compound 18]", "values": [{"measurement": "IC50", "result": "> 100", "unit": "µM"}]}
{"smiles": "OC(CN1CCOCC1)CN(Cc1cccc(OC(F)(F)F)c1)Cc1cccc(OC(F)(F)F)c1", "note": "(stereo not shown) [compound 19]", "values": [{"measurement": "IC50", "result": "> 100", "unit": "µM"}]}
{"smiles": "O=C1c2ccccc2C(=O)N1CC(O)CN(Cc1cccc(OC(F)(F)F)c1)Cc1cccc(OC(F)(F)F)c1", "note": "(stereo not shown) [compound 20]", "values": [{"measurement": "IC50", "result": "> 100", "unit": "µM"}]}
{"smiles": "COc1ccc(OCC(O)CN(Cc2cccc(OC(F)(F)F)c2)Cc2cccc(OC(F)(F)F)c2)cc1", "note": "(stereo not shown) [compound 21]", "values": [{"measurement": "IC50", "result": "> 100", "unit": "µM"}]}
